Structures can show the parent of a compound that is named as a salt.

Consider `COc1cc(Nc2nc(OC3CCCC(C(F)(F)F)C3)n(C(C)C)n2)ccc1-c1ccnc(C)c1` (centres unmarked) (as salt: HCl) (hydrate or solvate) [Compound 117], for which the melting point was 131.5 °C.

With `COc1cc(Nc2nc(Cc3cccc(C(F)(F)F)c3)n(CCNC(C)=O)n2)ccc1-n1cnc(C)c1` [Compound 1], the melting point amounted to 179 °C.

`COc1cc(Nc2nc(N3CCCC(C(F)(F)F)C3)n(C)n2)ccc1-n1cnc(C)c1` (centres unmarked) [Compound 2] yielded a melting point of 199.9 °C.

In turn, `COc1cc(Nc2nc(Oc3ccccc3Cl)n(C(C)C)n2)ccc1-n1cnc(C)n1` [Compound 4] registered a melting point of 202.7 °C.

The compound `COc1cc(Nc2nc(Oc3cccc(Cl)c3C)n(C(C)C)n2)ccc1-n1cnc(C)n1` [Compound 8] displayed a melting point of 157.2 °C.

Regarding `COc1cc(NC(=O)c2nc(Oc3ccc(F)cc3C)n(C(C)C)n2)ccc1-n1cnc(C)c1` [Compound 9], the melting point is 158.4 °C.

For `COc1nc(Nc2nc(-c3cccc(C(F)(F)F)c3)n(C(C)C)n2)ccc1-n1cnc(C)c1` [Compound 17], the melting point came out at 185.1 °C.

`COc1cc(Nc2nc(N3CCCC(c4ccccc4)C3)n(C(C)C)n2)ccc1-n1cnc(C)c1` (centres unmarked) [Compound 18] displayed a melting point of 164.2 °C.

`COc1cc(Nc2nc(Oc3ccccc3Cl)n(C)n2)ccc1-n1cnc(C)c1` [Compound 51] had a melting point of 210.1 °C.

Compound `COc1cccc(C2CCN(c3nc(Nc4ccc(-n5cnc(C)c5)c(OC)c4)nn3C(C)C)C2)c1` (centres unmarked) [Compound 53] gave a melting point of 169.9 °C.

On to `COc1cc(Nc2nc(N3C[C@@H](C)O[C@@H](C)C3)n(C(C)C)n2)ccc1-n1cnc(C)c1` [Compound 55], for which the melting point is 189.4 °C.

With `COc1cc(Nc2nc(N3CCc4ccccc4C3)n(C)n2)ccc1-n1cnc(C)c1` [Compound 56], the melting point stood at 170.1 °C.

For the compound `COc1cc(Nc2nc(N3CCc4ccccc4C3)n(C(C)C)n2)ccc1-n1cnc(C)c1` [Compound 57], the melting point was determined as 214.5 °C.

In the case of `Cc1cc(-c2ccc(Nc3nc(-c4cccc(C(F)(F)F)c4)n(C)n3)cc2)ccn1` [Compound 60], the melting point worked out at 184.2 °C.

Consider `COc1cc(Nc2nc(Oc3ccccc3Cl)n(C)n2)ccc1-c1ccnc(C)c1` [Compound 61], for which the melting point is 175 °C.

In the case of `Cc1cc(F)ccc1Oc1nc(Nc2ccc(-c3ccncc3)cc2)nn1C(C)C` [Compound 112], the melting point was 204.1 to 205.4 °C.

`Cn1nc(Nc2ccc(-c3ccncc3)cc2)nc1-c1cccc(C(F)(F)F)c1` [Compound 113] had a melting point of 220.7 °C.

Turning to `COc1cc(Nc2nc(N3CCN(C(=O)OC(C)(C)C)CC3)n(C(C)C)n2)ccc1-c1ccnc(C)c1` [Compound 132], the melting point amounted to 177.1 °C.

`COc1cc(Nc2nc(-c3cccc(C(F)(F)F)c3)n(C(C)C)n2)ccc1-c1ccnc(C)c1` [Compound 136] returned a melting point of 221.9 °C.

With `Cc1cc(-c2ccc(Nc3nc(-c4cccc(C(F)(F)F)c4)n(C(C)C)n3)cc2)ccn1` [Compound 137], the melting point was determined as 210.3 °C.

In turn, `Cc1cc(-c2ccc(Nc3nc(-c4cccc(C(F)(F)F)c4)n(C(C)C)n3)cc2F)ccn1` [Compound 138] yielded a melting point of 199.6 °C.

In turn, `COc1cc(Nc2nc(Oc3ccccc3Cl)n(CC(OC)OC)n2)ccc1-c1ccnc(C)c1` [Compound 147] yielded a melting point of 90.1 °C.

Consider `COc1cc(Nc2nc(Oc3ccccc3Cl)n(CCNC(C)C)n2)ccc1-c1ccnc(C)c1` [Compound 149], for which the melting point was determined as 138.6 °C.

`Cc1cc(-c2ccc(Nc3nc(Oc4c(C)cccc4Cl)n(C(C)C)n3)cc2)ccn1` [Compound 155] came in with a melting point of 222.6 °C.

Compound `Cc1cc(-c2ccc(Nc3nc(Oc4cccc(Cl)c4C)n(C(C)C)n3)cc2)ccn1` [Compound 157] came in with a melting point of 159.6 °C.

For `COc1cc(Nc2nc(Oc3cccc(Cl)c3)n(C(C)C)n2)ccc1-c1ccnc(C)c1` [Compound 158], the melting point is 125.4 °C.

For `Cc1cc(-c2ccc(Nc3nc(Oc4cc(F)ccc4Cl)n(C(C)C)n3)cc2)ccn1` [Compound 161], the melting point was found to be 132.7 °C.

In turn, `COc1cc(Nc2nc(Oc3ccc(F)cc3C)n(C(C)C)n2)ccc1-c1ccnc(C)c1` [Compound 163] came in with a melting point of 172.7 °C.

Consider `Cc1cc(-c2ccc(Nc3nc(Oc4ccc(F)cc4C)n(C(C)C)n3)cc2)ccn1` [Compound 164], for which the melting point turned out to be 138.9 °C.

Compound `COc1cc(Nc2nc(Oc3ccccc3C(F)(F)F)n(C)n2)ccc1-c1ccnc(C)c1` [Compound 166] registered a melting point of 159.6 °C.

For the compound `COc1cc(Nc2nc(Oc3cc(C(F)(F)F)ccc3F)n(C)n2)ccc1-c1ccnc(C)c1` [Compound 168], the melting point was found to be 145.1 °C.

For `COc1cc(Nc2nc(Oc3ccc(F)cc3C(F)(F)F)n(C(C)C)n2)ccc1-c1ccnc(C)c1` [Compound 169], the melting point turned out to be 134.8 °C.

Compound `COc1cc(Nc2nc(Oc3cccc(N4CCOCC4)c3)n(C(C)C)n2)ccc1-c1ccnc(C)c1` [Compound 171] registered a melting point of 169.3 °C.

The compound `COc1cc(Nc2nc(N3CCCN(C(C)=O)CC3)n(C(C)C)n2)ccc1-c1ccnc(C)c1` [Compound 176] yielded a melting point of 158.4 °C.

With `Cc1cc(F)ccc1Oc1nc(Nc2ccc(-c3ccnc(C(F)(F)F)c3)cc2)nn1C(C)C` [Compound 177], the melting point was in the range of 165.9 to 166.9 °C.

Compound `Cn1nc(Nc2ccc(-c3ccnc(C(F)(F)F)c3)cc2)nc1-c1cccc(C(F)(F)F)c1` [Compound 178] yielded a melting point of 179.2 °C.

Compound `COc1ccc(-c2ccc(Nc3nc(Oc4ccc(F)cc4C)n(C(C)C)n3)cc2)cn1` [Compound 179] returned a melting point of 142.7 to 144.7 °C.

`COc1cc(-c2ccc(Nc3nc(Oc4ccc(F)cc4C)n(C(C)C)n3)cc2)ccn1` [Compound 180] displayed a melting point of 132.8 to 143.6 °C.

Source of the values: patent US9079886B2, “Substituted triazole derivatives as gamma secretase modulators” (Janssen Pharmaceuticals, Inc., priority 2010, dated 2015).
